The record followed here is PubChem BioAssay AID330 (DTP/NCI, 2004).

Structures are written as SMILES. Where “and” joins values, the source holds several entries; their conditions need not be identical. Identical values can stand only once. Inconclusive results and toxic doses are left out.

The subject of this assay is P388 leukemia ip, CD2F1 mice, survival T/C. Kind of assay: NCI In Vivo Anticancer Drug Screen. Data for tumor model P388 Leukemia (intraperitoneal) in CD2F1 (CDF1) mice. The settings on record: endpoint: median survival time, higher = longer survival. In short, it runs like this:
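Mice carrying the transplanted tumor received test compound or vehicle. Survival was recorded in each group, and the value is the treated-group measurement divided by that of the vehicle-treated control group.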

Setting [1] is: dose: 50.0 mg/kg/injection, schedule: Q01DX009 (ip), vehicle: saline.
Setting [2] is: dose: 100.0 mg/kg/injection, schedule: Q01DX009 (ip), vehicle: saline.
[3] abbreviates: dose: 60.0 mg/kg/injection, schedule: Q01DX005 (ip), vehicle: saline with Tween-80.
Where [4] appears, read: dose: 120.0 mg/kg/injection, schedule: Q01DX005 (ip), vehicle: saline with Tween-80.
Setting [5] is: dose: 240.0 mg/kg/injection, schedule: Q01DX005 (ip), vehicle: saline with Tween-80.
Setting [6] is: dose: 50.0 mg/kg/injection, schedule: Q01DX005 (ip), vehicle: Klucel (hydroxypropylcellulose) (HPC).
Where [7] appears, read: dose: 50.0 mg/kg/injection, schedule: Q01DX005 (ip), vehicle: saline with Tween-80.
Where [8] appears, read: dose: 200.0 mg/kg/injection, schedule: Q04DX003 (ip), vehicle: saline with Tween-80.
The mark [9] stands for this setting: dose: 200.0 mg/kg/injection, schedule: Q01DX005 (ip), vehicle: saline with Tween-80.

Turning to `CC(C)=CC(=O)OCCN(C)C`, the T/C reads like this: under setting [1], 109 % of control; under setting [2], 93 % of control; (dose: 200.0 mg/kg/injection, schedule: Q01DX009 (ip), vehicle: saline) 93 % of control.

In the case of `COc1ccc(S(=O)(=O)c2cnc(N/N=C/c3ccc([N+](=O)[O-])o3)nc2N)cc1`, the T/C is, setting by setting: (dose: 100.0 mg/kg/injection, schedule: Q01DX001 (ip), vehicle: saline) 93 % of control; (dose: 200.0 mg/kg/injection, schedule: Q01DX001 (ip), vehicle: saline) 90 % of control; (dose: 400.0 mg/kg/injection, schedule: Q01DX001 (ip), vehicle: saline) 90 % of control.

As for `COc1cc2c(c(-c3cn(C)c4ccccc34)c1OC)OCO2`, the T/C under setting [3] is 97 % of control, the T/C under setting [4] was 98 % of control and the T/C under setting [5] is 97 % of control.

`Cc1cc(C)n2c(-c3ccccc3)c(C)c(C#N)c2n1`: the T/C under setting [3] is 106 % of control, the T/C under setting [4] was 100 % of control and the T/C under setting [5] was 91 % of control.

`[CH3][Sn]1([CH3])[O]C(=O)CC(CC(=O)O)C(=O)[O]1` (configuration not stated): the T/C is 119 % of control (dose: 12.5 mg/kg/injection, schedule: Q01DX005 (ip), vehicle: Klucel (hydroxypropylcellulose) (HPC)); 117 % of control (dose: 25.0 mg/kg/injection, schedule: Q01DX005 (ip), vehicle: Klucel (hydroxypropylcellulose) (HPC)); 113 % of control and 117 % of control under setting [6].

On to `C[CH](C)[GeH]([CH](C)C)[CH](C)C`, for which the T/C reads like this: under setting [1], 91 % of control; under setting [2], 91 % of control.

As to `Cc1cc(Nc2ccc(O)cc2)nc(Nc2ccc(O)cc2)n1`, the T/C runs as follows: under setting [3], 99 % of control; under setting [4], 99 % of control; under setting [5], 103 % of control.

As for `C=C(c1ccccc1)C1(O)CCCCC1N(C)C` (configuration not stated), the T/C was 102 % of control (dose: 25.0 mg/kg/injection, schedule: Q04DX002 (ip), vehicle: saline with Tween-80); 100 % of control (dose: 50.0 mg/kg/injection, schedule: Q04DX002 (ip), vehicle: saline with Tween-80); 94 % of control (dose: 100.0 mg/kg/injection, schedule: Q04DX002 (ip), vehicle: saline with Tween-80).

In the case of `COc1ccc(Cc2cc3c(cc2OC)OCO3)c(OC)c1`, the T/C runs as follows: under setting [3], 100 % of control; under setting [4], 108 % of control; under setting [5], 112 % of control.

Consider `COc1ccc(/C=C/C(CCN(C)C)=N/NC(=S)Nc2ccc(Br)cc2)cc1`, for which the T/C is 101 % of control (dose: 100.0 mg/kg/injection, schedule: Q01DX001 (ip), vehicle: saline with Tween-80); 96 % of control (dose: 200.0 mg/kg/injection, schedule: Q01DX001 (ip), vehicle: saline with Tween-80); 105 % of control (dose: 400.0 mg/kg/injection, schedule: Q01DX001 (ip), vehicle: saline with Tween-80).

Take `Cc1cc(N(CCCl)CCCl)ccc1NC(=O)c1ccccc1`: the T/C runs as follows: (dose: 50.0 mg/kg/injection, schedule: Q04DX003 (ip), vehicle: Klucel (hydroxypropylcellulose) (HPC)) 109 % of control; (dose: 100.0 mg/kg/injection, schedule: Q04DX003 (ip), vehicle: Klucel (hydroxypropylcellulose) (HPC)) 118 % of control; (dose: 200.0 mg/kg/injection, schedule: Q04DX003 (ip), vehicle: Klucel (hydroxypropylcellulose) (HPC)) 116 % of control.

`Cc1ccccc1-n1c(=S)n(-c2ccc(Cl)cc2)c2nc3ccccc3nc1/c2=N/Nc1ccccc1`: the T/C is 95 % of control (dose: 12.5 mg/kg/injection, schedule: Q01DX005 (ip), vehicle: saline with Tween-80); 96 % of control (dose: 25.0 mg/kg/injection, schedule: Q01DX005 (ip), vehicle: saline with Tween-80); 94 % of control under setting [7].

Consider `CC1C(=O)OC2CCN3CC4OC4(COC(=O)C(C)(O)C1(C)O)C23` (configuration not stated), for which the T/C runs as follows: (dose: 132.0 mg/kg/injection, schedule: Q04DX003 (ip), vehicle: saline with Tween-80) 90 % of control; under setting [8], 110 % of control; (dose: 300.0 mg/kg/injection, schedule: Q04DX003 (ip), vehicle: saline with Tween-80) 100 % of control.

As to `O=c1[nH]cnc2nc(N3CCOCC3)sc12`, the T/C reads like this: under setting [7], 93 % of control; under setting [4], 96 % of control; under setting [9], 95 % of control.

In the case of `COc1ccc(N2C(=O)/C(=C/c3ccccc3)N=C2/C=C/c2ccc(Cl)cc2)cc1`, the T/C (dose: 15.0 mg/kg/injection, schedule: Q01DX005 (ip), vehicle: Klucel + Tween-80) was 93 % of control; the T/C (dose: 30.0 mg/kg/injection, schedule: Q01DX005 (ip), vehicle: Klucel + Tween-80) was 95 % of control; the T/C (dose: 60.0 mg/kg/injection, schedule: Q01DX005 (ip), vehicle: Klucel + Tween-80) was 107 % of control and 96 % of control.

Turning to `CN(C)[C@@H]1C(=O)C(C(=O)NCNCCCC(=O)O)=C(O)[C@@]2(O)C(=O)C3=C(O)c4c(O)cccc4[C@@](C)(O)[C@H]3C[C@@H]12`, the T/C reads like this: (dose: 100.0 mg/kg/injection, schedule: Q04DX003 (ip), vehicle: saline with Tween-80) 104 % of control; under setting [8], 100 % of control; (dose: 400.0 mg/kg/injection, schedule: Q04DX003 (ip), vehicle: saline with Tween-80) 95 % of control.

Regarding `CC(C)(C)c1cc(CCc2nc(CCc3cc(C(C)(C)C)c(O)c(C(C)(C)C)c3)nc(CCc3cc(C(C)(C)C)c(O)c(C(C)(C)C)c3)n2)cc(C(C)(C)C)c1O`, the T/C runs as follows: (dose: 50.0 mg/kg/injection, schedule: Q01DX009 (ip), vehicle: Klucel (hydroxypropylcellulose) (HPC)) 92 % of control; (dose: 100.0 mg/kg/injection, schedule: Q01DX009 (ip), vehicle: Klucel (hydroxypropylcellulose) (HPC)) 88 % of control; (dose: 200.0 mg/kg/injection, schedule: Q01DX009 (ip), vehicle: Klucel (hydroxypropylcellulose) (HPC)) 93 % of control.

Consider `CCOC(=O)c1ccc(NC(=O)N(C2CCCCC2)C2CCCCC2)cc1`, for which the T/C by setting is: (dose: 3.75 mg/kg/injection, schedule: Q01DX005 (ip), vehicle: Klucel (hydroxypropylcellulose) (HPC)) 93 % of control; (dose: 7.5 mg/kg/injection, schedule: Q01DX005 (ip), vehicle: Klucel (hydroxypropylcellulose) (HPC)) 94 % of control; (dose: 15.0 mg/kg/injection, schedule: Q01DX005 (ip), vehicle: Klucel (hydroxypropylcellulose) (HPC)) 89 % of control; (dose: 240.0 mg/kg/injection, schedule: Q01DX005 (ip), vehicle: Klucel (hydroxypropylcellulose) (HPC)) 87 % of control.

Turning to `c1ccc2cc(OCC3CO3)c(OCC3CO3)cc2c1` (configuration not stated), the T/C is 100 % of control (dose: 1.88 mg/kg/injection, schedule: Q01DX005 (ip), vehicle: saline with Tween-80); 107 % of control (dose: 3.75 mg/kg/injection, schedule: Q01DX005 (ip), vehicle: saline with Tween-80); 116 % of control (dose: 7.5 mg/kg/injection, schedule: Q01DX005 (ip), vehicle: saline with Tween-80); 122 % of control (dose: 15.0 mg/kg/injection, schedule: Q01DX005 (ip), vehicle: saline with Tween-80); 151 % of control under setting [4].

For `O=C(O)C1CC1.[Ag]`, the T/C is 153 % of control (dose: 3.12 mg/kg/injection, schedule: Q01DX009 (ip), vehicle: saline with Tween-80) and 97 % of control (dose: 6.25 mg/kg/injection, schedule: Q01DX009 (ip), vehicle: saline with Tween-80).

As to `O=C(Nc1n[nH]c(NC(=O)c2ccccc2)n1)c1ccccc1`, the T/C under setting [6] was 92 % of control and the T/C (dose: 100.0 mg/kg/injection, schedule: Q01DX005 (ip), vehicle: Klucel (hydroxypropylcellulose) (HPC)) was 88 % of control.

For `CCNC(=O)CCC(NS(=O)(=O)c1ccccc1)C(=O)O` (configuration not stated), the T/C reads like this: (dose: 100.0 mg/kg/injection, schedule: Q04DX002 (ip), vehicle: Klucel (hydroxypropylcellulose) (HPC)) 103 % of control; (dose: 200.0 mg/kg/injection, schedule: Q04DX002 (ip), vehicle: Klucel (hydroxypropylcellulose) (HPC)) 97 % of control; (dose: 400.0 mg/kg/injection, schedule: Q04DX002 (ip), vehicle: Klucel (hydroxypropylcellulose) (HPC)) 96 % of control.

Consider `Nc1ncnc2c1ncn2[C@@H](C=O)O[C@@H](C=O)CO`, for which the T/C (dose: 3.13 mg/kg/injection, schedule: Q01DX009 (ip), vehicle: other) is 155 % of control; the T/C (dose: 6.25 mg/kg/injection, schedule: Q01DX009 (ip), vehicle: other) is 150 % of control and 169 % of control.

For the compound `COc1cc(Br)c(CC(NC(=O)c2ccccc2)c2ccc(OC)c(OC)c2OC)cc1OC` (configuration not stated), under setting [9], the T/C is 91 % of control.

Take `O=[N+]([O-])/C=C/c1ccccc1`: the T/C reads like this: (dose: 5.0 mg/kg/injection, schedule: Q01DX009 (ip), vehicle: saline sonified) 100 % of control; (dose: 10.0 mg/kg/injection, schedule: Q01DX009 (ip), vehicle: saline sonified) 100 % of control; (dose: 20.0 mg/kg/injection, schedule: Q01DX009 (ip), vehicle: saline sonified) 100 % of control.
